Results on eight compounds are retold here after US20100204128A1, “NOVEL PEPTIDES” (SANARE INVESTMENT AS, priority 2007, published 2010).

What all share (assay type): cell-based
Settings in all cases: for fluorescent readings: 24 hours, duplicate wells

In one test the test system is MCF-7 cells. The test is described as follows: AlmarBlue fluorescence cell growth test, MCF-7 cells. The method, then:
(§1) Re-feed media were prepared to yield the following final six concentrations of each of the 12 peptides: 5×10^−3, 5×10^−4, 5×10^−5, 5×10^−6, 5×10^−7, and 5×10^−8M. […] With that, the 5×10^−3M mixture contains about 0.42×10^−3M of each peptide. […] With that, the 5×10^−3M mixture contains about 0.42×10^−3M of each of said 8 peptides.
(§2) MCF-7 and T47D cells were seeded into 96-well plates at a density of 10,000 cells per well in 90 μL of appropriate culture medium. TMX2-28 cells were seeded into 96-well plates at a density of 5,000 cells per well in 90 μL of appropriate culture medium. Plates were placed in a 37° C., 5% CO2 incubator and cells were allowed to attach to the bottom of the well for 24 hours after which 10 μL of the appropriate refeed medium was added. Each concentration was tested in duplicate in each cell line. […] Cells were then incubated for 24 hours. Subsequently 10 μL of AlmarBlue (Biosource) was added to each well. After three hours, the fluorescence was detected using a Packard Instrument Plate Reader with 535/20 excitation and 590/20 emission filters.

Another test concerns TMX2-28 cells. The test is described as follows: AlmarBlue fluorescence cell growth test, TMX2-28 cells. Here is the method: With that, the 5×10^−3M mixture contains about 0.42×10^−3M of each peptide. Furthermore, mixtures containing equal volumes of peptides SEQ ID NO:2-SEQ ID NO:7, SEQ ID NO:10 and SEQ ID NO:11 were also prepared (equal volumes of said re-feed media) to yield the following final six concentrations: […] With that, the 5×10^−3M mixture contains about […].
as §2

For a further test, the system named is T47D cells. The test is described as follows: AlmarBlue fluorescence cell growth test, T47D cells. Here is the method: as §1, §2
Setting [1] is: 5 × 10^−4 M (mixtures: total concentration), decrease vs DC5 = reduced cell growth.
Setting [2] is: 5 × 10^−5 M (mixtures: total concentration).
Where [3] appears, read: 5 × 10^−6 M (mixtures: total concentration).
[4] abbreviates: 5 × 10^−7 M (mixtures: total concentration).
[5] abbreviates: 5 × 10^−8 M (mixtures: total concentration).
[6] abbreviates: 5 × 10^−9 M (mixtures: total concentration).

Where “and” joins values, the source holds several entries; their conditions need not be identical. Equal values may be shown once.

“SEQIDNO9: synthesised peptide identified in the 10 kDa blood fraction after acupuncture; sequence not printed in the text (SSNNGCMRDPTLYRCK; Derived from human blood sample)”: the fluorescent readings is 67879 and 68176 with MCF-7 cells (setting [1]); 65563 and 69218 in the test with MCF-7 cells (setting [2]); 65046 and 65931 with MCF-7 cells (setting [3]); 63071 and 65962 with MCF-7 cells (setting [4]); 57728 and 62231 with MCF-7 cells (setting [5]); 62556 and 61065 in the test on MCF-7 cells (setting [6]). The fluorescent readings is 71608 and 70176 in the test with TMX2-28 cells (setting [1]); 69255 and 69328 in the test with TMX2-28 cells (setting [2]); 69234 and 68280 in the test on TMX2-28 cells (setting [3]); 67663 and 69155 with TMX2-28 cells (setting [4]); 67229 and 67807 in the test with TMX2-28 cells (setting [5]); 68009 and 65131 in the test on TMX2-28 cells (setting [6]). Besides, the fluorescent readings with T47D cells (setting [1]) is 67492 and 77427; in the test with T47D cells (setting [2]), 63181 and 64535; with T47D cells (setting [3]), 62848 and 62359; with T47D cells (setting [4]), 63130 and 68689; with T47D cells (setting [5]), 60146 and 64467; with T47D cells (setting [6]), 65094 and 67070.

Take “SEQIDNO4: synthesised peptide identified in the 10 kDa blood fraction after acupuncture; sequence not printed in the text (KFLQAKFYQLSLERP; Derived from human blood sample)”: the fluorescent readings is 64475 and 66716 with MCF-7 cells (setting [1]); 63637 and 66597 in the test with MCF-7 cells (setting [2]); 65699 and 66767 with MCF-7 cells (setting [3]); 64278 and 64885 with MCF-7 cells (setting [4]); 64878 and 64702 in the test with MCF-7 cells (setting [5]); 61356 and 61062 with MCF-7 cells (setting [6]). The fluorescent readings was 68299 and 67310 in the test on TMX2-28 cells (setting [1]); 67939 and 68552 with TMX2-28 cells (setting [2]); 69917 and 70618 with TMX2-28 cells (setting [3]); 70744 and 72469 with TMX2-28 cells (setting [4]); 71761 and 72585 in the test on TMX2-28 cells (setting [5]); 70255 and 70823 with TMX2-28 cells (setting [6]). For the same compound, the fluorescent readings with T47D cells (setting [1]) was 65000 and 63427; in the test with T47D cells (setting [2]), 66449 and 66303; in the test with T47D cells (setting [3]), 66808 and 65677; in the test on T47D cells (setting [4]), 65859 and 65314; in the test with T47D cells (setting [5]), 66040 and 64619; with T47D cells (setting [6]), 57800 and 59394.

For the compound “SEQIDNO6: synthesised peptide identified in the 10 kDa blood fraction after acupuncture; sequence not printed in the text (RKEGKGERE; Derived from human blood sample)”, the fluorescent readings was 69282 and 66723 in the test on MCF-7 cells (setting [1]); 69071 and 69114 in the test on MCF-7 cells (setting [2]); 67961 and 70454 in the test on MCF-7 cells (setting [3]); 66967 and 68329 with MCF-7 cells (setting [4]); 65221 and 65987 in the test with MCF-7 cells (setting [5]); 60855 and 61454 in the test on MCF-7 cells (setting [6]). In addition, the fluorescent readings with TMX2-28 cells (setting [1]) is 68949 and 68566; with TMX2-28 cells (setting [2]), 70355 and 69358; in the test with TMX2-28 cells (setting [3]), 70389 and 69887; with TMX2-28 cells (setting [4]) it was 71096 and 70512; in the test with TMX2-28 cells (setting [5]), 70707 and 71208; in the test on TMX2-28 cells (setting [6]), 62308 and 64367. The fluorescent readings with T47D cells (setting [1]) is 60992 and 68394; in the test with T47D cells (setting [2]), 57868 and 68983; in the test with T47D cells (setting [3]) it was 66902 and 68862; in the test on T47D cells (setting [4]) it was 65508 and 66620; in the test on T47D cells (setting [5]), 65244 and 64730; in the test with T47D cells (setting [6]) it was 61392 and 63577.

In the case of “SEQIDNO12: synthesised peptide identified in the 10 kDa blood fraction after acupuncture; sequence not printed in the text (PVLTLDMPSSERGK; Derived from human blood sample)”, the fluorescent readings in the test on MCF-7 cells (setting [1]) was 64634 and 66223; in the test on MCF-7 cells (setting [2]), 67452 and 68292; in the test with MCF-7 cells (setting [3]), 67604 and 67923; with MCF-7 cells (setting [4]), 65967 and 68650; with MCF-7 cells (setting [5]) it was 64530 and 64993; in the test with MCF-7 cells (setting [6]), 59810 and 61717. For the same compound, the fluorescent readings in the test on TMX2-28 cells (setting [1]) is 64801 and 66313; in the test with TMX2-28 cells (setting [2]), 67335 and 67800; in the test on TMX2-28 cells (setting [3]), 69868 and 69586; with TMX2-28 cells (setting [4]), 67062 and 68845; in the test with TMX2-28 cells (setting [5]) it was 68382 and 67167; with TMX2-28 cells (setting [6]), 66458 and 66191. In addition, the fluorescent readings in the test with T47D cells (setting [1]) was 57184 and 62215; with T47D cells (setting [2]) it was 62230 and 62786; with T47D cells (setting [3]) it was 64065 and 63826; in the test on T47D cells (setting [4]) it was 64023 and 65295; in the test with T47D cells (setting [5]), 65019 and 65289; with T47D cells (setting [6]), 62179 and 65227.

“SEQIDNO2: synthesised peptide identified in the 10 kDa blood fraction after acupuncture; sequence not printed in the text (KVGAHAGEYGAEALER; Derived from human blood sample)”: the fluorescent readings with MCF-7 cells (setting [1]) was 68630 and 65876; in the test on MCF-7 cells (setting [2]), 66492 and 66554; in the test on MCF-7 cells (setting [3]), 65617 and 65531; with MCF-7 cells (setting [4]), 63699 and 63627; in the test with MCF-7 cells (setting [5]), 63539 and 63477; with MCF-7 cells (setting [6]), 63298 and 62132. The fluorescent readings was 70121 and 70743 in the test with TMX2-28 cells (setting [1]); 70162 and 68517 in the test with TMX2-28 cells (setting [2]); 69083 and 71861 with TMX2-28 cells (setting [3]); 72557 and 73134 with TMX2-28 cells (setting [4]); 72061 and 73603 with TMX2-28 cells (setting [5]); 68910 and 72372 with TMX2-28 cells (setting [6]). The fluorescent readings was 66780 and 68474 with T47D cells (setting [1]); 67257 and 66607 in the test with T47D cells (setting [2]); 63525 and 67453 in the test on T47D cells (setting [3]); 64064 and 66021 in the test on T47D cells (setting [4]); 62463 and 63876 in the test with T47D cells (setting [5]); 57744 and 60399 in the test with T47D cells (setting [6]).

As to “SEQIDNO1: synthesised peptide identified in the 10 kDa blood fraction after acupuncture; sequence not printed in the text (ASPVAPLDPLLKYGRGQPVSSASGTTTDLGQ; Derived from human blood sample)”, the fluorescent readings with MCF-7 cells (setting [1]) was 69131 and 67176; in the test with MCF-7 cells (setting [2]), 65474 and 66009; in the test on MCF-7 cells (setting [3]), 65860 and 64140; in the test on MCF-7 cells (setting [4]), 62613 and 62686; in the test on MCF-7 cells (setting [5]), 63693 and 62463; in the test on MCF-7 cells (setting [6]), 62279 and 60719. The fluorescent readings in the test on TMX2-28 cells (setting [1]) was 74129 and 72743; in the test on TMX2-28 cells (setting [2]), 73649 and 71774; in the test on TMX2-28 cells (setting [3]) it was 72975 and 71640; with TMX2-28 cells (setting [4]) it was 74503 and 75697; in the test with TMX2-28 cells (setting [5]), 75445 and 77164; with TMX2-28 cells (setting [6]), 71409 and 71588. Moreover, the fluorescent readings was 65814 and 66151 in the test with T47D cells (setting [1]); 64794 and 65757 in the test with T47D cells (setting [2]); 63241 and 63091 with T47D cells (setting [3]); 63036 and 62709 with T47D cells (setting [4]); 62633 and 62689 in the test with T47D cells (setting [5]); 55767 and 59593 in the test with T47D cells (setting [6]).

As to `CC/C(=C(\c1ccccc1)c1ccc(OCCN(C)C)cc1)c1ccccc1` [Tamoxifen, reference compound], in the test on MCF-7 cells (24 hours incubation), the “effect on proliferation (in words)” value was “insufficient to decrease the proliferation”.

`c1ccc2c(c1)cc1ccc3cccc4ccc2c1c34` [BaP, Benzo[a]pyrene, reference compound]: the “effect on proliferation (in words)” value in the test on TMX2-28 cells (24 hours incubation) and in the test with T47D cells (24 hours incubation) was “insufficient to decrease the proliferation” each time.
